# Assay results taken from patent publication US6071882A, “Means for treating prostate hypertrophy and prostate cancer” (ASTA Medica AG, priority 1998, dated 2000).
# Non-standard residues stand in square brackets, D forms with d. Residues, ends and D or L forms follow the SMILES beside them. dPhe(4-Cl) = N[C@H](Cc1ccc(Cl)cc1)C(=O)O; d2Nal = N[C@H](Cc1ccc2ccccc2c1)C(=O)O; dCit = NC(=O)NCCC[C@@H](N)C(=O)O; d3Pal = N[C@H](Cc1cccnc1)C(=O)O
# Tests used:
# [1] = test system: Prostate carcinoma patients; settings: 500 μg every 12 hours for 6 weeks; cited from earlier work
# BPH patients [2] = settings: cited from earlier work
# BPH patients [3] = test: Clinical therapy of BPH with Cetrorelix; format: in vivo
# Method: Cetrorelix is administered in a dose of 0.5 mg to 2 mg daily for 4 to 8 weeks for the therapy of BPH. A dose of 5 mg to 30 mg, dispensed once per week or every 10 days also over a time period of 4 to 8 weeks as well as one every two weeks or one injection per month of 20 mg to 60 mg can also decisively improve the clinical symptoms and signs. […] The prostate volume decreases by 20 to 40% during the treatment time of 4 to 8 weeks. […] In addition, at least 30% of the patients achieve an improvement of the urine flow of 6 ml/sec with this therapy. This is almost equivalent to an improvement like that associated with the golden standard operation, and in considerably shorter time. […] These clinical benefits continue for at least 3 to 6 months after therapy. This allows a long-term therapy of BPH with only an intermittent treatment of 2 to max. 4 injection cycles over 4 to 8 weeks.
structure (smiles),measurement,setting,value
CC(=O)N[C@H](Cc1ccc2ccccc2c1)C(=O)N[C@H](Cc1ccc(Cl)cc1)C(=O)N[C@H](Cc1cccnc1)C(=O)N[C@@H](CO)C(=O)N[C@@H](Cc1ccc(O)cc1)C(=O)N[C@H](CCCNC(N)=O)C(=O)N[C@@H](CC(C)C)C(=O)N[C@@H](CCCNC(=N)N)C(=O)N1CCC[C@H]1C(=O)N[C@H](C)C(N)=O [Cetrorelix] (Ac-[d2Nal][dPhe(4-Cl)][d3Pal]SY[dCit]LRP[dA]-NH2),overall condition of the patient,[1],considerable improvement
same,testosterone levels during treatment,"BPH patients [2]; 500 μg every 12 hours for 4 weeks, no castration values during last three weeks",fluctuated at subnormal levels
same,"testosterone levels, initially","BPH patients [2]; 500 μg every 12 hours, all patients (BPH and prostate carcinoma), initially",lowering in testosterone levels to a castration level
same,testosterone decrease,BPH patients [3]; above those levels associated with castration,Submaximal decreases of testosterone occur
same,limitations in sexual performance,"BPH patients [3]; human, in vivo",No limitations in sexual performance are observed
same,quality of life,"BPH patients [3]; human, in vivo",significant improvements
same,increase of the peak flow of the urine,BPH patients [3]; treatment of 4 to 8 weeks,approximately 3 ml/sec
same,patients achieving an improvement of the urine flow of 6 ml/sec,BPH patients [3]; treatment of 4 to 8 weeks,at least 30%
